Test results reported in ChEMBL document CHEMBL4602725 (J Med Chem, 2020).

Key:
Histone deacetylase 1 = Histone deacetylase 1 (Homo sapiens, UniProt Q13547); test: Inhibition of human recombinant HDAC1 pre-incubated for 30 mins before Ac-Leu- Gly-Lys(Ac)-AMC substrate addition and measured after 90 mins by fluorescence based assay
Histone deacetylase 2 = Histone deacetylase 2 (Homo sapiens, UniProt Q92769); test: Inhibition of human recombinant HDAC2 pre-incubated for 30 mins before Ac-Leu- Gly-Lys(Ac)-AMC substrate addition and measured after 90 mins by fluorescence based assay
Sequence of Histone deacetylase 2 (Q92769 whole entry): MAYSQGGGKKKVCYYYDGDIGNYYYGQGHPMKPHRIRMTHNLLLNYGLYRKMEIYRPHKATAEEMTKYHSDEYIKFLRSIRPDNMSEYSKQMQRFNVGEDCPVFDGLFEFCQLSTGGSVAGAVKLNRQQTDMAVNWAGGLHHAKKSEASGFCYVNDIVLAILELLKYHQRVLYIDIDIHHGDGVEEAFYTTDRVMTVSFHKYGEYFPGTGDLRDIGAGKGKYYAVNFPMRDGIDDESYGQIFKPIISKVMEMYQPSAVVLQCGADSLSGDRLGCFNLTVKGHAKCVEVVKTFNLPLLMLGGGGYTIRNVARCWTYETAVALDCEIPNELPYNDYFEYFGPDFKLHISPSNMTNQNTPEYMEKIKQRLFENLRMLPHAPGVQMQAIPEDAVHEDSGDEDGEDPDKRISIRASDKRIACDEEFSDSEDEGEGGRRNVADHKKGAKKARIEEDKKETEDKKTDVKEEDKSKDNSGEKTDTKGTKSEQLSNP

Histone deacetylase 3 = Histone deacetylase 3 (Homo sapiens, UniProt O15379); test: Inhibition of human recombinant HDAC3 pre-incubated for 30 mins before Ac-Leu- Gly-Lys(Ac)-AMC substrate addition and measured after 90 mins by fluorescence based assay
Sequence of Histone deacetylase 3 (O15379 whole entry): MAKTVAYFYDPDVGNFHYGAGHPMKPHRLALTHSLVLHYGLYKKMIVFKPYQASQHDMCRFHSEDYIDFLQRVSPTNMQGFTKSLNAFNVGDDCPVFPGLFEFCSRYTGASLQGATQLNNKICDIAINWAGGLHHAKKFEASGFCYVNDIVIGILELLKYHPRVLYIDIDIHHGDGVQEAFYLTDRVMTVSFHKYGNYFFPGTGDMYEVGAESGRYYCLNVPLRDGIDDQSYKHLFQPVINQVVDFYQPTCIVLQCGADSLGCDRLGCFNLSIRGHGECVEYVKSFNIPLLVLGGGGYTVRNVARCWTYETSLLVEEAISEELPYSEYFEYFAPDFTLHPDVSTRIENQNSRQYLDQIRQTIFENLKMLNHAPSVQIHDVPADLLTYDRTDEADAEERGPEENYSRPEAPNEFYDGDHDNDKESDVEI

Histone deacetylase 8 = biological target: T1, Histone deacetylase 8 (Homo sapiens, UniProt Q9BY41); test: Inhibition of human recombinant HDAC8 pre-incubated for 30 mins before Ac-Leu- Gly-Lys(Ac)-AMC substrate addition and measured after 90 mins by fluorescence based assay
T1 sequence (Q9BY41 whole entry): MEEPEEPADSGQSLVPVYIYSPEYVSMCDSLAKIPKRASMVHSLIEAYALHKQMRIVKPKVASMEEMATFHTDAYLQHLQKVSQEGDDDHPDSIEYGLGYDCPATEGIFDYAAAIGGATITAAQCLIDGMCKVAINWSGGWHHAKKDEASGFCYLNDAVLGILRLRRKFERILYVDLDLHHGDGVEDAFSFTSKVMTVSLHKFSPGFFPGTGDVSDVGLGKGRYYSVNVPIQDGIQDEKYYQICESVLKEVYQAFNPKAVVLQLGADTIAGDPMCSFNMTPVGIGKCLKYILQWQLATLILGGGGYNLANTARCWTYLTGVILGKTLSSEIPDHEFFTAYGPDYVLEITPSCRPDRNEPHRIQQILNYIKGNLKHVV

Sequence of Histone deacetylase 1 (Q13547 whole entry): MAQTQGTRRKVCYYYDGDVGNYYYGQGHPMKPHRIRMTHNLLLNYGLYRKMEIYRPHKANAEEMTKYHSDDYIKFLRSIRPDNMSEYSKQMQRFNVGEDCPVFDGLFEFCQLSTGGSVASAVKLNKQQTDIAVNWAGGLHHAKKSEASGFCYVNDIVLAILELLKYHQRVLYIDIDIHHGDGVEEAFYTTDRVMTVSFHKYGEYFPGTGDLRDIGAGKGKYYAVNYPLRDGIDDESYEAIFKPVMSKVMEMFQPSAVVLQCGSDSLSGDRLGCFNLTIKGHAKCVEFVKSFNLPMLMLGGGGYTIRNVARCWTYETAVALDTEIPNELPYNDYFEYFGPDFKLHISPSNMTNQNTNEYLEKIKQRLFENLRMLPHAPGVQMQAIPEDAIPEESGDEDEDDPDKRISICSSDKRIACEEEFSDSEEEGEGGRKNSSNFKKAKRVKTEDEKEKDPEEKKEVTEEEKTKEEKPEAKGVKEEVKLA

| Structure (SMILES) | IC50 (Histone deacetylase 1) [nM] | further results |
| --- | --- | --- |
| O=C(NO)c1ccc(NC(=O)C2(c3ccccc3)CCCCC2)cc1 | 15 |  |
| O=C(NO)c1ccc(NC(=O)C2(c3c[nH]c(-c4ccc(Br)cc4)n3)CCCC2)cc1 | 10 |  |
| O=C(NO)c1ccc(NC(=O)C2(c3ccc(Cl)c(Cl)c3)CCOCC2)cc1 | 6 |  |
| CC(C)(C(=O)Nc1ccc(C(=O)NO)cc1)c1ccccc1 | 218 |  |
| O=C(NO)c1ccc(NC(=O)C2(c3ccc4ccccc4c3)CCCC2)cc1 | 11 |  |
| CCC(CC)(C(=O)Nc1ccc(C(=O)NO)cc1)c1ccccc1 | 430 |  |
| O=C(NO)c1ccc(NC(=O)C2(c3ccccc3)CC2)cc1 | 93 |  |
| CC(=O)Nc1ccc(N)cc1-c1ccc(C2(C(=O)Nc3ccc(C(=O)NO)cc3)CCCCC2)cc1 | 10 |  |
| O=C(NO)c1ccc(NC(=O)C2(c3ccc(-c4cn[nH]c4)cc3)CCCCC2)cc1 | 2 | IC50 (Histone deacetylase 2): 10 nM; IC50 (Histone deacetylase 3): 2 nM; IC50 (Histone deacetylase 8): 69 nM |
| O=C(NO)c1ccc(NC(=O)C2(c3ccc(-c4cc[nH]n4)cc3)CCCC2)cc1 | 4 |  |
| CC(C)C(C(=O)Nc1ccc(C(=O)NO)cc1Cl)c1ccccc1 (racemic) | 1060 |  |
| C/C(=N\O)c1sccc1-c1ccc(C2(C(=O)Nc3ccc(C(=O)NO)cc3)CCCC2)cc1 | 43 |  |
| CC(C)C(C(=O)Nc1ccc(C(=O)NO)cn1)c1ccccc1 (stereo unspecified) | 22 |  |
| COc1ccc(C2(C(=O)Nc3ccc(C(=O)NO)cc3)CCCCC2)cc1-c1cn[nH]c1 | 3 |  |
| O=C(Cc1ccccc1)Nc1ccc(C(=O)NO)cc1 | 75 |  |
| O=C(NO)c1ccc(NC(=O)C2(c3ccc(-c4ccccc4)cc3)CCCC2)cc1 | 16 |  |
| O=C(NO)c1ccc(NC(=O)C2(c3ccccc3)CCNCC2)cc1 | 12 |  |
| O=C(NO)c1ccc(NC(=O)C2(c3ccc(Br)cc3)CCCC2)cc1 | 7 |  |
| O=C(NO)c1ccc(NC(=O)C2(c3c[nH]c(-c4ccccc4)n3)CCCC2)cc1 | 3 | IC50 (Histone deacetylase 2): 21 nM; IC50 (Histone deacetylase 3): 10 nM; IC50 (Histone deacetylase 8): 41 nM |
| O=C(NO)c1ccc(NC(=O)C2(c3ccc(-c4ccccc4)c(F)c3)CCCC2)cc1 | 42 |  |
| O=C(NO)c1ccc(NC(=O)C2(c3ccc(-c4ccc5[nH]ccc5c4)cc3)CCCC2)cc1 | 8 |  |
| O=C(NO)c1ccc(NC(=O)C2(c3csc(-c4cccc(Oc5ccccc5)c4)n3)CCCC2)cc1 | > 10000 |  |
| COc1ccc(C2(C(=O)Nc3ccc(C(=O)NO)cc3)CCCCC2)cc1Br | 31 |  |
| O=C(NO)c1ccc(NC(=O)C(c2ccccc2)c2ccccc2)cc1 | 250 |  |
| CC(C)C(NC(=O)c1ccc(C(=O)NO)cc1)c1ccccc1 (racemic) | 2120 |  |
| O=C(NO)c1ccc(NC(=O)C2(c3ccc(-c4ccc(OCc5ccccc5)nc4)cc3)CCCC2)cc1 | 240 |  |
| O=C(NO)c1ccc(NC(=O)C2(c3ccc(Br)cc3)CCCCC2)cc1 | 63 |  |
| O=C(NO)c1ccc(NC(=O)C2(c3ccc4c(c3)OCO4)CCCCC2)cc1 | 42 |  |
| Cc1[nH]ncc1-c1ccc(C2(C(=O)Nc3ccc(C(=O)NO)cc3)CCCC2)cc1 | 5 |  |
| Cc1n[nH]c(C)c1-c1ccc(C2(C(=O)Nc3ccc(C(=O)NO)cc3)CCCC2)cc1 | 8 |  |
